{"source": "ChEMBL document CHEMBL6103648", "about": "“AI-Driven Discovery of Highly Specific and Efficacious hCES2A Inhibitors for Ameliorating Irinotecan-Triggered Gut Toxicity” (J Med Chem, 2025)", "data": [{"assay": "Inhibition of human CES2A using fluorescein diacetate as substrate preincubated for 3 mins followed by substrate addition measured after 30 mins by fluorescence based assay", "units": {"IC50": "nM"}, "values": [{"smiles": "COc1cc(CCC(=O)N2CCC(Cc3ccccc3)CC2)ccc1OC(=O)N1CCOCC1", "IC50": 7.27}, {"smiles": "CCN(C)C(=O)Oc1ccc(C(=O)N2CCC(Cc3ccc(F)cc3)CC2)cc1OC", "IC50": 1.31}, {"smiles": "CCN(C)C(=O)Oc1ccc(CCC(=O)N2CCC(c3ccccc3)CC2)cc1OC", "IC50": 4.85}, {"smiles": "CCN(C)C(=O)Oc1ccc(/C=C/C(=O)N2CCC(c3ccccc3)CC2)cc1OC", "IC50": 3.18}, {"smiles": "CCN(C)C(=O)Oc1ccc(C(=O)N2CCc3ccccc3C2)cc1OC", "IC50": 2.06}, {"smiles": "CCN(CC)C(=O)COc1ccc(C(C)=O)cc1OC", "IC50": 460}, {"smiles": "CNC(=O)COc1ccc(C(C)=O)cc1OC", "IC50": 462}, {"smiles": "CCN(C)C(=O)Oc1ccc(CCC(=O)N2CCN(Cc3ccccc3)CC2)cc1OC", "IC50": 57.3}, {"smiles": "CCOc1cc(C(=O)N2CCC(Cc3ccccc3)CC2)ccc1OC(=O)N(C)CC", "IC50": 1.13}, {"smiles": "CCN(C)C(=O)Oc1ccc(CCC(=O)N2CCc3ccccc3C2)cc1", "IC50": 7.39}, {"smiles": "CCN(C)C(=O)Oc1ccc(C(=O)N2CCC(C(=O)c3ccc(F)cc3)CC2)cc1OC", "IC50": 10.3}, {"smiles": "CCN(C)C(=O)Oc1ccc(C(=O)N2CCC(CCCc3ccccc3)CC2)cc1OC", "IC50": 2.94}, {"smiles": "CN(C)C(=O)C(CCN1CCC(O)(c2ccc(Cl)cc2)CC1)(c1ccccc1)c1ccccc1", "note": "[LOPERAMIDE]", "IC50": 404}, {"smiles": "CCN(C)C(=O)Oc1ccc(CCC(=O)N2CCC(Cc3ccccc3)CC2)cc1OC", "IC50": 3.31}, {"smiles": "CCN(C)C(=O)Oc1ccc(C(=O)N2CCC(c3ccccc3)CC2)cc1OC", "IC50": 1.47}, {"smiles": "CCN(C)C(=O)Oc1ccc(C(=O)N2CCC(Cc3ccccc3)CC2)cc1OCC1CC1", "IC50": 1.02}, {"smiles": "CCN(CC)C(=O)Oc1ccc(CCC(=O)N2CCC(Cc3ccccc3)CC2)cc1OC", "IC50": 34}, {"smiles": "CCN(C)C(=O)Oc1ccc(/C=C/C(=O)N2CCC(Cc3ccccc3)CC2)cc1", "IC50": 1.46}, {"smiles": "CCN(C)C(=O)Oc1ccc(C(=O)N2CCN(Cc3ccccc3)CC2)cc1OC", "IC50": 5.93}, {"smiles": "CCN(C)C(=O)Oc1ccc(CCC(=O)N2CCc3ccccc3C2)cc1OC", "IC50": 6.05}, {"smiles": "COc1cc(CCC(=O)N2CCC(Cc3ccccc3)CC2)ccc1OC(=O)N(C)C", "IC50": 4.1}]}]}
